Source: ChEMBL document CHEMBL2390888, “Identification and synthesis of N-(thiophen-2-yl) benzamide derivatives as BRAF(V600E) inhibitors” (Bioorg Med Chem Lett, 2013)
Active and inactive are the calls of the source. The calls are words filed in the database; no cut-off is given here.

Columns and labels:
[1] = tested on: Serine/threonine-protein kinase B-raf (Homo sapiens), P15056 [V600E]; experiment: Inhibition of BRAF V600E mutant (unknown origin) assessed as inhibition of MEK phosphorylation at 1 uM by ELISA relative to control
Chain of Serine/threonine-protein kinase B-raf (Homo sapiens), P15056 [V600E] (P15056 whole entry V600E): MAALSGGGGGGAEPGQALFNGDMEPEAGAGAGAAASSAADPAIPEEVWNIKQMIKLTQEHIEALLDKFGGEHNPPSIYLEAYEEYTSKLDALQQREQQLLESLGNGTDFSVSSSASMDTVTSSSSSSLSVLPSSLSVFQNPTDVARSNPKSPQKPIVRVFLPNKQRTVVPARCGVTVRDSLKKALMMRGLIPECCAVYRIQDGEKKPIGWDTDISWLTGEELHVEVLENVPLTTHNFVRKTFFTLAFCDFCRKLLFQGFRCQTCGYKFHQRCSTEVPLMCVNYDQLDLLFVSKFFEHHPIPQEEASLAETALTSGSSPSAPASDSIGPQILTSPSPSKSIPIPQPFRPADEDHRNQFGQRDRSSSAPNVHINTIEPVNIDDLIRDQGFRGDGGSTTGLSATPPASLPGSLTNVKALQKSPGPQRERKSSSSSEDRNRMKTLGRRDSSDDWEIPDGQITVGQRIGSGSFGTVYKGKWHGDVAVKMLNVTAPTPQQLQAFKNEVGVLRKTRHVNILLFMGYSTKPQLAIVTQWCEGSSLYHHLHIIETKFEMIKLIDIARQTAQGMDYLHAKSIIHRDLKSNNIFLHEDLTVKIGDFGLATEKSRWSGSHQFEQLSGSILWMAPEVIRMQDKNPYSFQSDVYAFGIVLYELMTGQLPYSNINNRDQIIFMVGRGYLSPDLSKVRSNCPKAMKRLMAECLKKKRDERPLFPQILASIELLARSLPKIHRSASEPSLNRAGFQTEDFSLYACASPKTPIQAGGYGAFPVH

[2] = tested on: Serine/threonine-protein kinase B-raf (Homo sapiens), P15056 [V600E]; experiment: Inhibition of BRAF V600E mutant (unknown origin) assessed as inhibition of MEK phosphorylation at 2 uM by ELISA relative to control
[3] = molecular target: Serine/threonine-protein kinase B-raf (Homo sapiens, UniProt P15056, V600E); experiment: Inhibition of BRAF V600E mutant (unknown origin) assessed as inhibition of MEK phosphorylation by ELISA
Chain of Serine/threonine-protein kinase B-raf (P15056 2-766 V600E limits assumed): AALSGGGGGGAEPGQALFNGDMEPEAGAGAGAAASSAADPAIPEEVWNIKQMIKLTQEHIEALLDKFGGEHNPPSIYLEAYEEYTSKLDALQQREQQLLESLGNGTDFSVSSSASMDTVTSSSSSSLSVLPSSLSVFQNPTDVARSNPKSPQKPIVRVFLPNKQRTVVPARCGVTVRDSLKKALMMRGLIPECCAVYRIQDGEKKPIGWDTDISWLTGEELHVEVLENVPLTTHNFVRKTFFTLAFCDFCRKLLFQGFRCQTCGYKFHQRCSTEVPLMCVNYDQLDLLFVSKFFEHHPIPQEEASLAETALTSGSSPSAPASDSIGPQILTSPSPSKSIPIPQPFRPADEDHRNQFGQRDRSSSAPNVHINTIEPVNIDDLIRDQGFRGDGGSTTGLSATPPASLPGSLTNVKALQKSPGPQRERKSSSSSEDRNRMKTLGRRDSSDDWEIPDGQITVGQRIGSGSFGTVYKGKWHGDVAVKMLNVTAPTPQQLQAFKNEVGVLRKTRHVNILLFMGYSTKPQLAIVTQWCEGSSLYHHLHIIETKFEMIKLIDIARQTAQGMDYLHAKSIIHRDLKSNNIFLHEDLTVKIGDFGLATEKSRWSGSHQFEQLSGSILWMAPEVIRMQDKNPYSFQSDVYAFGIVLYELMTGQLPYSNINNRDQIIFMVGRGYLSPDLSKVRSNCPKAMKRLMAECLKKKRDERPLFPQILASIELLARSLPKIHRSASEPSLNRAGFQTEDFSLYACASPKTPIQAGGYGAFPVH

| Compound | inhibition [1] | inhibition [2] | IC50 [3] |
| --- | --- | --- | --- |
| CCOC(=O)c1sc(NC(=O)c2cccc(NC(C)=O)c2)c(C#N)c1C | 17% |  |  |
| CCOc1ccc(C(=O)Nc2sc(C(=O)OC(C)C)c(C)c2C#N)cc1 |  | inactive |  |
| CCOC(=O)c1sc(NC(=O)c2cccc(Cl)c2)c(C#N)c1C |  | 57% |  |
| CCOC(=O)c1sc(NC(=O)c2ccc(C)c(OC)c2)c(C#N)c1C |  | inactive |  |
| Cc1c(C(=O)OC(C)C)sc(NC(=O)c2ccc(F)cc2)c1C#N |  | inactive |  |
| COC(=O)c1sc(NC(=O)c2ccccc2OC)c(C#N)c1C |  | inactive |  |
| CCOC(=O)c1sc(NC(=O)c2cccc(C#N)c2)c(C#N)c1C |  | 40% |  |
| CCOC(=O)c1sc(NC(=O)c2ccc(Cl)nc2)c(C#N)c1C | 10% |  |  |
| CCOC(=O)c1sc(NC(=O)c2ccc(Cl)cc2)c(C#N)c1C |  | 60% |  |
| CCOC(=O)c1sc(NC(=O)c2ccc(NS(C)(=O)=O)cc2)c(C#N)c1C | inactive |  |  |
| CCOC(=O)c1sc(NC(=O)c2ccc(N3CCN(C)CC3)cc2)c(C#N)c1C |  | inactive |  |
| CCOC(=O)c1sc(NC(=O)c2ccccc2C)c(C#N)c1C |  | 52% | 2010 nM |
| CCOC(=O)c1sc(NC(=O)c2cccc(NS(C)(=O)=O)c2)c(C#N)c1C | inactive |  |  |
| CCOC(=O)c1sc(NC(=O)c2ccccc2I)c(C(=O)OC)c1C |  | inactive |  |
| CCOC(=O)c1sc(NC(=O)c2ccc(C)cc2)c(C#N)c1C |  | 48% |  |
| CCOC(=O)c1sc(NC(=O)c2ccc(OC)c(OC)c2)c(C#N)c1C |  | 32% |  |
| CCOC(=O)c1sc(NC(=O)c2ccccc2F)c(C(N)=O)c1C |  | inactive |  |
| CCOC(=O)c1sc(NC(=O)c2ccc(Br)cc2)c(C#N)c1C |  | inactive |  |
| CCOC(=O)c1sc(NC(=O)c2ccncc2)c(C#N)c1C | 22% |  |  |
| CCOC(=O)c1sc(NC(=O)c2ccc(C(C)(C)C)cc2)c(C#N)c1C |  | 46% |  |
| CCOC(=O)c1sc(NC(=O)c2cccc([N+](=O)[O-])c2)c(C#N)c1C |  | 36% |  |
| O=C1NC(=S)NC(=O)C1=Cc1ccc(-c2ccc(Br)cc2)o1 |  |  | 470 nM |
| CCOC(=O)c1sc(NC(=O)c2ccccc2)c(C(=O)OCC)c1C |  | inactive |  |
| CCOC(=O)c1sc(NC(=O)c2ccc(C(=O)OC)cc2)c(C#N)c1C |  | 54% |  |

| Compound | inhibition [1] | inhibition [2] | IC50 [3] |
| --- | --- | --- | --- |
| CCOC(=O)c1sc(NC(=O)c2ccc(Cl)cc2)c(C(N)=O)c1C |  | 26% |  |
| CCOC(=O)c1sc(NC(=O)c2cccc(C)c2)c(C#N)c1C |  | 50% |  |
| CCOC(=O)c1sc(NC(=O)c2ccccc2F)c(C#N)c1C |  | 51% |  |
| CCOC(=O)c1sc(NC(=O)c2ccccc2NS(C)(=O)=O)c(C#N)c1C | inactive |  |  |
| CCOC(=O)c1sc(NC(=O)c2ccccc2OC)c(C#N)c1C |  | 42% |  |
| CCOC(=O)c1sc(NC(=O)c2ccccn2)c(C#N)c1C | 39% |  |  |
| CCOC(=O)c1sc(NC(=O)c2cccnc2)c(C#N)c1C | 20% |  |  |
| CCOC(=O)c1sc(NC(=O)c2ccco2)c(C#N)c1C |  | inactive |  |
| CCCS(=O)(=O)Nc1cc(F)c(C(=O)Nc2sc(C(=O)OCC)c(C)c2C#N)c(F)c1 | 34% |  |  |
| CCCOC(=O)c1c(NC(=O)c2ccccc2F)sc(C(=O)OCC)c1C |  | inactive |  |
| CCOC(=O)c1sc(NC(=O)c2ccc(Cl)c(C(F)(F)F)c2)c(C#N)c1C |  | 60% |  |
| CCOC(=O)c1sc(NC(=O)c2cc(OC)cc(OC)c2)c(C#N)c1C | 60% | 85% | 770 nM |
| CCOC(=O)c1sc(NC(=O)c2ccc(NC(C)=O)cc2)c(C#N)c1C | inactive |  |  |
| Cc1c(C(=O)OC(C)C)sc(NC(=O)c2ccc(Cl)c(Cl)c2)c1C#N |  | 42% |  |
| COC(=O)c1sc(NC(=O)c2cccc(C)c2)c(C#N)c1C |  | inactive |  |
| CCOC(=O)c1sc(NC(=O)c2ccc(OCC)cc2)c(C#N)c1C |  | 69% | 1160 nM |
| CCOC(=O)c1sc(NC(=O)c2ccc(Cl)c(F)c2)c(C#N)c1C |  | 59% |  |
| COC(=O)c1sc(NC(=O)c2cc(OC)cc(OC)c2)c(C#N)c1C |  | inactive |  |
| CCOC(=O)c1sc(NC(=O)c2ccc(OC)cc2)c(C#N)c1C |  | 15% |  |
| CCOC(=O)c1sc(NC(=O)c2ccc(Cl)c(Cl)c2)c(C#N)c1C |  | 36% |  |
| CCOC(=O)c1sc(NC(=O)c2cccc(OC)c2)c(C#N)c1C |  | 13% |  |
| CCOC(=O)c1sc(NC(=O)c2ccc(F)cc2)c(C(=O)Nc2ccccc2)c1C | 66% | 87% | 630 nM |
| CCOC(=O)c1sc(NC(=O)c2ccccc2Cl)c(C#N)c1C |  | inactive |  |
| CCOC(=O)c1sc(NC(=O)c2ccc(Cl)c([N+](=O)[O-])c2)c(C#N)c1C |  | 51% | 2160 nM |
